For 27 compounds, Dmax, remaining activity and DC50 results are on record in patent publication US11787785B2 (NOVARTIS AG, priority 2021, dated 2023).

Structures are written as SMILES. Where two headings read alike, the source gives them in different places.

For this experiment, the target named is T1, WIZ protein (HiBit-WIZ fusion protein) (Homo sapiens, UniProt O95785+Q96SW2).
T1 construct: expressed in transfected cells
The experiment can be described thus: Quantification of WIZ protein levels in HiBit tag fusion protein assay (WIZ HiBit assay in 293T cells). In kind it is cell-based. More on the design: remaining activity / Dmax: dose or concentration left out as unconfirmed. In a few lines:
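Luminescence after LgBit complementation quantified remaining HiBit-WIZ in lysates of single-copy stable 293T lines. Cells dosed ~18 h at 37 °C with 10-point, 5-fold dilutions (highest 25 μM); DMSO set to 100%, fitted curve gave % remaining at 25 μM (Amax).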

Where [1] appears, read: HEK-293T, 100 − Amax, at 25 uM; 293T cells; read-out: % degradation of WIZ (100 − Amax).
Where [2] appears, read: HEK-293T, DMSO-normalized, curve-fitted percentage of WIZ-HiBit remaining at 25 uM; 293T cells; read-out: WIZ Amax.
Setting [3] is: WIZ HiBit assay in 293T cells; 10-point, 5-fold dose response, highest concentration 25 μM, about 18 hours; read-out: WIZ AC50.

T1 sequence (O95785 whole entry, the tested form may be a part): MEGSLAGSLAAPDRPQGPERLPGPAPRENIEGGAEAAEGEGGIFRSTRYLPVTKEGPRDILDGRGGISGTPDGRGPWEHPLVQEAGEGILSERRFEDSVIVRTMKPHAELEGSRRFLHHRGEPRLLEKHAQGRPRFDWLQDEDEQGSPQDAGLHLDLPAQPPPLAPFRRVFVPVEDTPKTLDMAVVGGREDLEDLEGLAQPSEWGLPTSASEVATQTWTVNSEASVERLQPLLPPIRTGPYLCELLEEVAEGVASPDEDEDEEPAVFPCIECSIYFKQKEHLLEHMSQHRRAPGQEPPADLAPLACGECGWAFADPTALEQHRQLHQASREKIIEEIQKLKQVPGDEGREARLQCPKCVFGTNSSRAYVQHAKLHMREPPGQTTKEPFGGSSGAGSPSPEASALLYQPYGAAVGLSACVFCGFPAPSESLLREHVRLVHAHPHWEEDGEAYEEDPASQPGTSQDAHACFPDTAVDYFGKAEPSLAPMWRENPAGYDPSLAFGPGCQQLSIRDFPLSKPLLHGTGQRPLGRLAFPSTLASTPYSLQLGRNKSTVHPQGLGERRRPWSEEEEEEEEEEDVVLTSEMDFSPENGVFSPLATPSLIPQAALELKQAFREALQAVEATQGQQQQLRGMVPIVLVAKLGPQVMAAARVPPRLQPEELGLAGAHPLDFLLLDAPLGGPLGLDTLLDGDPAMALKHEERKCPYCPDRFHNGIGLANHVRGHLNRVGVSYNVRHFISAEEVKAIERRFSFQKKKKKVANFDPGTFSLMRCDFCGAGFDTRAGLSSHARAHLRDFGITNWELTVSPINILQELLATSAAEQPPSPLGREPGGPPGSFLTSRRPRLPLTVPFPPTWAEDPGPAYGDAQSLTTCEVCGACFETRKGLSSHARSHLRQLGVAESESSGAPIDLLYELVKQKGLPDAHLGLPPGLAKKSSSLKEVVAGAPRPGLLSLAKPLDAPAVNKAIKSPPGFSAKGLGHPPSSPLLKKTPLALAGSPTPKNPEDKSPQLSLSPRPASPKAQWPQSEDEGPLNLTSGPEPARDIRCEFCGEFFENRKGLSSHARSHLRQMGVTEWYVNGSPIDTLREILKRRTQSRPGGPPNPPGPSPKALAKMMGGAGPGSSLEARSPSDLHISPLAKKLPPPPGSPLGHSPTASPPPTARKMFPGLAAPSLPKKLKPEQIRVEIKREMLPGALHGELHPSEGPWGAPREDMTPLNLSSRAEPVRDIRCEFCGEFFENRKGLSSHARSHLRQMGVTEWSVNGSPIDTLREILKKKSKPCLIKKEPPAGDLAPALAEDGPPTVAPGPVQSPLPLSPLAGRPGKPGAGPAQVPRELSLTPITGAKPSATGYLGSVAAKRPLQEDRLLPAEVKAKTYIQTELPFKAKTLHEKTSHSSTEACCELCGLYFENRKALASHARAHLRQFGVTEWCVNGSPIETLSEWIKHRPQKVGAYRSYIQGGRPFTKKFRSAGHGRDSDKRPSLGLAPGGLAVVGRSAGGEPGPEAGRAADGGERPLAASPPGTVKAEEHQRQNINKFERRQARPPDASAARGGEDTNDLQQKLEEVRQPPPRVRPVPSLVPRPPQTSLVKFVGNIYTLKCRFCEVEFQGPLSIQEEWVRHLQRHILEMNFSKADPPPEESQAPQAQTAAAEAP
T1 sequence (Q96SW2 whole entry, the tested form may be a part): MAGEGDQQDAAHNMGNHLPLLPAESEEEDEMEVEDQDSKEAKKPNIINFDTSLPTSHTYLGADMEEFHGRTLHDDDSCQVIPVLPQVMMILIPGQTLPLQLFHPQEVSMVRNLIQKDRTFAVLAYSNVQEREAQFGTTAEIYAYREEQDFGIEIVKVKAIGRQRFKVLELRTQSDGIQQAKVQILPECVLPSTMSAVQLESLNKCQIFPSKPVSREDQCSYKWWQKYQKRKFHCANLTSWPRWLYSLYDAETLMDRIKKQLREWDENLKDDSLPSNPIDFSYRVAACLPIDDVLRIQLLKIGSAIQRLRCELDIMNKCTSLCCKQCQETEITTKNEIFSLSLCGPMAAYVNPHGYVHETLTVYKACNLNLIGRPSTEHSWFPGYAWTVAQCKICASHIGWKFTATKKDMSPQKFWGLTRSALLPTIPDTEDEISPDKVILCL
T1 sequence (Q16531 whole entry partner, the tested form may be a part): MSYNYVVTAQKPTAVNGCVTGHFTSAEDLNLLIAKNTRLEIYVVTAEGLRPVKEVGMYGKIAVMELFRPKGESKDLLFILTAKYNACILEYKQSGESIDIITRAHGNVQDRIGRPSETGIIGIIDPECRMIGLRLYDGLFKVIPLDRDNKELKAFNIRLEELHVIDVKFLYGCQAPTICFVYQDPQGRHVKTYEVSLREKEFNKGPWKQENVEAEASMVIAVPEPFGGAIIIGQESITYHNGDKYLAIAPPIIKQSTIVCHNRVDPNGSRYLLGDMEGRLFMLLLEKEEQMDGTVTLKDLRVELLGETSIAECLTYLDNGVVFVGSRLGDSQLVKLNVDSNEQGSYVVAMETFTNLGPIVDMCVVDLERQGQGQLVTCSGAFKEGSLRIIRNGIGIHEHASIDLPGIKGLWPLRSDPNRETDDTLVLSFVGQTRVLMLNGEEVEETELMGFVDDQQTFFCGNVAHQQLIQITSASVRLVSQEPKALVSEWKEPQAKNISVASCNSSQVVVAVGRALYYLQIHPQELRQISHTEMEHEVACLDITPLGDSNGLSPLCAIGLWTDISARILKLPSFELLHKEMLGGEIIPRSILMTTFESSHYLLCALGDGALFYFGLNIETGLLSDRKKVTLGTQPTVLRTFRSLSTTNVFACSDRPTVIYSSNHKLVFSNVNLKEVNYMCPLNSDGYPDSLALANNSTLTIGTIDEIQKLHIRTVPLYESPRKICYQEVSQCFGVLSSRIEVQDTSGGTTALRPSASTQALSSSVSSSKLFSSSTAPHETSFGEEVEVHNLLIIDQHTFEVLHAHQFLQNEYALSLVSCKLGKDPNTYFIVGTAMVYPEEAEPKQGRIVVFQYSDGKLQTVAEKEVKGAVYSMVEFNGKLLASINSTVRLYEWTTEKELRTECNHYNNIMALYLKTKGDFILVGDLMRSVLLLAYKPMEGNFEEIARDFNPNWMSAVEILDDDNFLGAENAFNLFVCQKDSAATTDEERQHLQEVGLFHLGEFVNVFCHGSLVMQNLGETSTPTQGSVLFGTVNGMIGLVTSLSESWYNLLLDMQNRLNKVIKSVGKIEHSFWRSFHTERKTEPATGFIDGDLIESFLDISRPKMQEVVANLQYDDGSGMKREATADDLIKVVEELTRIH

For the compound `O=C1CCN(c2cnn3ccc(CN4CCN(CC5CCOC5)CC4)cc23)C(=O)N1` (stereo not drawn) [Example 177], under setting [1], the Dmax at 25 µM was determined as 77%. The remaining activity at 25 µM under setting [2] is 23%. Besides, under setting [3], the DC50 was 106 nM.
Regarding `CN1CCC(Cc2ccn3ncc(N4CCC(=O)NC4=O)c3c2)CC1` [Example 49, 1-(5-((1-methylpiperidin-4-yl)methyl)pyrazolo[1,5-a]pyridin-3-yl)dihydropyrimidine-2,4(1H,3H)-dione], the Dmax at 25 µM under setting [1] turned out to be 66%. Moreover, under setting [2], the remaining activity at 25 µM was 34%. Under setting [3], the DC50 was 2790 nM.
As to `C[C@H]1C[C@H](Cc2ccn3ncc(N4CCC(=O)NC4=O)c3c2)CCN1S(=O)(=O)N1CCCC1` [Example 291, 1-(5-(((2S,4R)-2-methyl-1-(pyrrolidin-1-ylsulfonyl)piperidin-4-yl)methyl)pyrazolo[1,5-a]pyridin-3-yl)dihydropyrimidine-2,4(1H,3H)-dione], under setting [1], the Dmax at 25 µM was found to be 83%. Also, the remaining activity at 25 µM under setting [2] came to 17%. Besides, under setting [3], the DC50 came out at 15 nM.
As for `CCN1CCC(Cc2ccn3ncc(N4CCC(=O)NC4=O)c3c2)CC1` [Example 24, 1-(5-((1-ethylpiperidin-4-yl)methyl)pyrazolo[1,5-a]pyridin-3-yl)dihydropyrimidine-2,4(1H,3H)-dione], the Dmax at 25 µM under setting [1] is 77%. In addition, under setting [2], the remaining activity at 25 µM stood at 23%. In addition, under setting [3], the DC50 came out at 1080 nM.
As for `CC(C)(C1CCC(F)(F)CC1)N1CCN(Cc2ccn3ncc(N4CCC(=O)NC4=O)c3c2)CC1` [Example 181, 1-(5-((4-(2-(4,4-difluorocyclohexyl)propan-2-yl)piperazin-1-yl)methyl)pyrazolo[1,5-a]pyridin-3-yl)dihydropyrimidine-2,4(1H,3H)-dione], the Dmax (HEK-293T, read-out: % degradation of WIZ (100 − Amax)) was 75%. Moreover, under “HEK-293T, read-out: WIZ Amax”, the remaining activity was found to be 25%. In addition, where the note is “read-out: WIZ AC50; WIZ HiBit assay in 293T cells; 10-point, 5-fold dose response, highest concentration 25 μM, about 18 hours”, the DC50 amounted to 30 nM.
`CCO[C@H]1CC[C@H](CN2CCC(Cc3ccn4ncc(N5CCC(=O)NC5=O)c4c3)CC2)CC1` [Example 266, 1-(5-((1-(((1r,4r)-4-ethoxycyclohexyl)methyl)piperidin-4-yl)methyl)pyrazolo[1,5-a]pyridin-3-yl)dihydropyrimidine-2,4(1H,3H)-dione]: under setting [1], the Dmax at 25 µM stood at 81%. In addition, the remaining activity at 25 µM under setting [2] is 19%. The DC50 under setting [3] came out at 44 nM.
In the case of `O=C1CCN(c2cnn3ccc(CC4CCN(C[C@H]5CC[C@H](O)CC5)CC4)cc23)C(=O)N1` [Example 151, 1-(5-((1-(((1r,4r)-4-hydroxycyclohexyl)methyl)piperidin-4-yl)methyl)pyrazolo[1,5-a]pyridin-3-yl)dihydropyrimidine-2,4(1H,3H)-dione], the Dmax at 25 µM under setting [1] was found to be 86%. Besides, under setting [2], the remaining activity at 25 µM was found to be 14%. Moreover, under setting [3], the DC50 came to 270 nM.
Regarding `O=C1CCN(c2cnn3ccc(CC4CCN(C(=O)c5ccccc5)CC4)cc23)C(=O)N1` [Example 101], under setting [1], the Dmax at 25 µM amounted to 33%. Further, the remaining activity at 25 µM under setting [2] was 67%. For the same compound, under setting [3], the DC50 is more than 25000 nM.
For the compound `C[C@H]1CN(Cc2ccn3ncc(N4CCC(=O)NC4=O)c3c2)CCN1C1COC1` [Example 331], the Dmax at 25 µM under setting [1] is 76%. Also, under setting [2], the remaining activity at 25 µM was determined as 24%. Further, the DC50 under setting [3] was determined as 73 nM.
In the same order, the values of `O=C1CCN(c2cnn3ccc(CC4CCN(Cc5cccc(F)c5)C4)cc23)C(=O)N1` (stereo not drawn) [Example 131] are 38%, 62% and 370 nM.
With `C[C@H]1C[C@H](Cc2ccn3ncc(N4CCC(=O)NC4=O)c3c2)CCN1Cc1cccnc1` [Example 150], the Dmax at 25 µM under setting [1] stood at 90%. Besides, under setting [2], the remaining activity at 25 µM amounted to 10%. The DC50 under setting [3] is 0.3 nM.
Turning to `C[C@H]1C[C@H](Cc2ccn3ncc(N4CCC(=O)NC4=O)c3c2)CCN1S(C)(=O)=O` [Example 284], under setting [1], the Dmax at 25 µM turned out to be 80%. Also, the remaining activity at 25 µM under setting [2] came out at 20%. In addition, under setting [3], the DC50 worked out at 18 nM.
Regarding `O=C1CCN(c2cnn3ccc(CC4CCN(CC5CCC5)CC4)cc23)C(=O)N1` [Example 18, 1-(5-((1-(cyclobutylmethyl)piperidin-4-yl)methyl)pyrazolo[1,5-a]pyridin-3-yl)dihydropyrimidine-2,4(1H,3H)-dione], under setting [1], the Dmax at 25 µM worked out at 82%. For the same compound, the remaining activity at 25 µM under setting [2] came to 18%. The DC50 under setting [3] came out at 34 nM.
As to `O=C1CCN(c2cnn3ccc(CC4CCN(Cc5ccc(C(F)(F)F)cc5)CC4)cc23)C(=O)N1` [Example 57, 1-(5-((1-(4-(trifluoromethyl)benzyl)piperidin-4-yl)methyl)pyrazolo[1,5-a]pyridin-3-yl)dihydropyrimidine-2,4(1H,3H)-dione], the Dmax at 25 µM under setting [1] is 63%. Moreover, the remaining activity at 25 µM under setting [2] was 37%. Also, the DC50 under setting [3] came to 107 nM.
Take `O=C1CCN(c2cnn3ccc(CC4CCN(CC5(F)CCCCC5)CC4)cc23)C(=O)N1` [Example 107, 1-(5-((1-((1-fluorocyclohexyl)methyl)piperidin-4-yl)methyl)pyrazolo[1,5-a]pyridin-3-yl)dihydropyrimidine-2,4(1H,3H)-dione]: the Dmax at 25 µM under setting [1] turned out to be 78%. In addition, the remaining activity at 25 µM under setting [2] came out at 22%. The DC50 under setting [3] is 31 nM.
Turning to `O=C1CCN(c2cnn3ccc(CC4CCN(Cc5cccc(F)c5)CC4)cc23)C(=O)N1` [Example 22, 1-(5-((1-(3-fluorobenzyl)piperidin-4-yl)methyl)pyrazolo[1,5-a]pyridin-3-yl)dihydropyrimidine-2,4(1H,3H)-dione], the Dmax at 25 µM under setting [1] was determined as 77%. Also, the remaining activity at 25 µM under setting [2] was found to be 23%. Besides, the DC50 under setting [3] came to 71 nM.
Consider `CC(C)[C@H]1CN(Cc2ccn3ncc(N4CCC(=O)NC4=O)c3c2)CCN1CC1CCOCC1` [Example 230, (S)-1-(5-((3-isopropyl-4-((tetrahydro-2H-pyran-4-yl)methyl)piperazin-1-yl)methyl)pyrazolo[1,5-a]pyridin-3-yl)dihydropyrimidine-2,4(1H,3H)-dione], for which the Dmax at 25 µM under setting [1] stood at 0%. In addition, the remaining activity at 25 µM under setting [2] was 100%. Also, the DC50 under setting [3] was more than 25000 nM.
In the same order, the values of `O=C1CCN(c2cnn3ccc(CC4CCN(CCc5c[nH]cn5)CC4)cc23)C(=O)N1` [Example 120, 1-(5-((1-(2-(1H-imidazol-4-yl)ethyl)piperidin-4-yl)methyl)pyrazolo[1,5-a]pyridin-3-yl)dihydropyrimidine-2,4(1H,3H)-dione] are 66%, 34% and 1430 nM.
Regarding `CC(C)CN1CC[C@@H](Cc2ccn3ncc(N4CCC(=O)NC4=O)c3c2)C[C@H]1C` [Example 77], the Dmax at 25 µM under setting [1] amounted to 68%. Besides, the remaining activity at 25 µM under setting [2] came to 32%. Also, the DC50 under setting [3] came out at 77 nM.
In the same order, the values of `Cc1cncc(CN2CCC(Cc3ccn4ncc(N5CCC(=O)NC5=O)c4c3)CC2)c1` [Example 36, 1-(5-((1-((5-methylpyridin-3-yl)methyl)piperidin-4-yl)methyl)pyrazolo[1,5-a]pyridin-3-yl)dihydropyrimidine-2,4(1H,3H)-dione] are 72%, 28% and 68 nM.
As to `COCC(F)(F)CN1CCN(Cc2ccn3ncc(N4CCC(=O)NC4=O)c3c2)C[C@@H]1C` [Example 328, (S)-1-(5-((4-(2,2-difluoro-3-methoxypropyl)-3-methylpiperazin-1-yl)methyl)pyrazolo[1,5-a]pyridin-3-yl)dihydropyrimidine-2,4(1H,3H)-dione], the Dmax at 25 µM under setting [1] came to 52%. Moreover, the remaining activity at 25 µM under setting [2] came to 48%. Moreover, the DC50 under setting [3] was found to be 338 nM.
As to `O=C1CCN(c2cnn3ccc(CN4CCN(CC(F)(F)F)CC4)cc23)C(=O)N1` [Example 171], the Dmax at 25 µM under setting [1] came to 52%. Moreover, the remaining activity at 25 µM under setting [2] is 48%. The DC50 under setting [3] worked out at 981 nM.
`CC(C)C(=O)N1CCN(Cc2ccn3ncc(N4CCC(=O)NC4=O)c3c2)C[C@@H]1C` [Example 341, (S)-1-(5-((4-isobutyryl-3-methylpiperazin-1-yl)methyl)pyrazolo[1,5-a]pyridin-3-yl)dihydropyrimidine-2,4(1H,3H)-dione]: the Dmax at 25 µM under setting [1] came to 30%. The remaining activity at 25 µM under setting [2] is 70%. The DC50 under setting [3] was determined as 799 nM.
Consider `C[C@H]1CN(Cc2ccn3ncc(N4CCC(=O)NC4=O)c3c2)CCN1C1CC2(COC2)C1` [Example 332], for which the Dmax at 25 µM under setting [1] turned out to be 49%. The remaining activity at 25 µM under setting [2] came out at 51%. In addition, under setting [3], the DC50 was found to be 22000 nM.
In the same order, the values of `CC(C)CN1CCC(Cc2ccn3ncc(N4CCC(=O)NC4=O)c3c2)CC1(C)C` (stereo not drawn) [Example 79, 1-(5-((1-isobutyl-2,2-dimethylpiperidin-4-yl)methyl)pyrazolo[1,5-a]pyridin-3-yl)dihydropyrimidine-2,4(1H,3H)-dione] are 65%, 35% and 65 nM.
Consider `O=C1CCN(c2cnn3ccc(CC4CCN(CCC5CCC5)CC4)cc23)C(=O)N1` [Example 13, 1-(5-((1-(2-cyclobutylethyl)piperidin-4yl)methyl)pyrazolo[1,5-a]pyridin-3-yl)dihydropyrimidine-2,4(1H,3H)-dione], for which, under setting [1], the Dmax at 25 µM came out at 84%. The remaining activity at 25 µM under setting [2] is 16%. Further, under setting [3], the DC50 turned out to be 19 nM.
For the compound `CCCN1CCN(Cc2ccn3ncc(N4CCC(=O)NC4=O)c3c2)CC1` [Example 163], the Dmax at 25 µM under setting [1] is 76%. Under setting [2], the remaining activity at 25 µM is 24%. Besides, the DC50 under setting [3] came out at 561 nM.
